The text below walks through data of article PMC12040169 (PLOS Biology, 2025).

A short description of this data set: in vitro. Conditions: human, hela cells, % viability.

Turning to `CC(C)C(=O)N1CCC(n2nc(-c3cccs3)oc2=O)CC1` [CBK282422], the viability at 28.5 h, 10 µM turned out to be 103%.

Regarding `CC(C)(C)C(=O)N1CCC(n2nc(-c3cccs3)oc2=O)CC1` [CBK282423], the viability at 28.5 h, 10 µM came out at 88%.

With `C#CCNC(=O)C1CCCN(c2nc3ccccc3n2CC)C1` (stereo not drawn) [CBK282433], the viability at 28.5 h, 10 µM stood at 90.5%.

With `CC(NC(=O)c1ncoc1-c1ccc2ccccc2c1)c1cccnc1` (stereo not drawn) [CBK282441], the viability at 28.5 h, 10 µM is 94.2%.

Regarding `CC(C)C(NC(=O)c1cccc(-n2cnnc2)c1)c1cccs1` (stereo not drawn) [CBK282442], the viability at 28.5 h, 10 µM was determined as 111%.

Turning to `Cc1c(-c2ccccc2)n[nH]c1C(=O)NCCCc1ccccn1` [CBK282445], the viability at 28.5 h, 10 µM was determined as 89%.

Turning to `C=CCC1(CC=C)CCN1C(=O)c1cc(-c2ccccn2)n[nH]1` [CBK282448], the viability at 28.5 h, 10 µM is 106%.

As for `CC(C)NC(=O)Cn1c(-c2cccs2)cc2cccnc21` [CBK282454], the viability at 28.5 h, 10 µM is 97.3%.

Turning to `CC(C)(C)NC(=O)Cn1c(-c2cccs2)cc2cccnc21` [CBK282455], the viability at 28.5 h, 10 µM was 97.1%.

Turning to `CCCc1cc(C(=O)NC(c2ccccc2)c2cccnc2)[nH]n1` (stereo not drawn) [CBK282462], the viability at 28.5 h, 10 µM came out at 93.8%.

For the compound `CCC(=O)N1CCC2(CC1)CNC(=O)c1cc(C)ccc1O2` [CBK282468], the viability at 28.5 h, 10 µM was determined as 85.2%.

In the case of `Cc1ccc(C2(CN3CCN(Cc4cnc(C)n4C)CC3)CC2)cc1` [CBK282469], the viability at 28.5 h, 10 µM was found to be 93.5%.

With `CCN1CCCC1CN(Cc1cnn(C)c1)Cc1ccco1` (stereo not drawn) [CBK282470], the viability at 28.5 h, 10 µM amounted to 96.6%.

Turning to `Cc1nn(C)cc1CN(Cc1ccc(F)cc1)CC1CCCO1` (stereo not drawn) [CBK282472], the viability at 28.5 h, 10 µM was found to be 98.5%.

`Cc1nc[nH]c1CN(CCCn1ccnc1)Cc1ccccc1Cl` [CBK282473]: the viability at 28.5 h, 10 µM turned out to be 103%.

Turning to `CN1C(=O)C(CC(=O)NCCCc2ccc(F)cc2)c2ccccc21` (stereo not drawn) [CBK282474], the viability at 28.5 h, 10 µM came to 106%.

On to `Cn1nc(C2CC2)cc1C(=O)NCCCN1CCCc2ccccc21` [CBK282476], for which the viability at 28.5 h, 10 µM came to 90.7%.

On to `Cc1nc2ccc(C(=O)NCCn3ccnc3C)cc2s1` [CBK282477], for which the viability at 28.5 h, 10 µM was determined as 88.1%.

For `Cc1ccc(C2(CN3CCN(Cc4cnn(C)c4)CC3)CC2)cc1` [CBK282480], the viability at 28.5 h, 10 µM stood at 96.3%.

With `Cc1ccc(CN(CCCN(C)C)Cc2nc(C)n3ccccc23)o1` [CBK282482], the viability at 28.5 h, 10 µM is 106%.

With `Cc1ccc(C)c2c(C)c(C(=O)NCC[S+](C)[O-])[nH]c12` (stereo not drawn) [CBK282484], the viability at 28.5 h, 10 µM worked out at 76.5%.

Regarding `Cc1[nH]c2c(C)cccc2c1CC(=O)NC1CCCN(C)C1` (stereo not drawn) [CBK282485], the viability at 28.5 h, 10 µM came to 74.1%.

Consider `Cc1nc2ccc(C(=O)NC(C)Cc3cccs3)cc2[nH]1` (stereo not drawn) [CBK282487], for which the viability at 28.5 h, 10 µM amounted to 86.8%.

Regarding `Cc1nc[nH]c1CN(Cc1cccc(F)c1)Cc1ccco1` [CBK282493], the viability at 28.5 h, 10 µM came to 75.7%.

Regarding `COc1cccc(CN(Cc2ccco2)Cc2[nH]cnc2C)c1` [CBK282495], the viability at 28.5 h, 10 µM worked out at 81.4%.

Turning to `COc1cccc(CN(Cc2ccco2)Cc2cncn2C)c1` [CBK282497], the viability at 28.5 h, 10 µM was 102%.

As for `O=C(Nc1ccc(Oc2cccnc2)cc1)C1CCCN1` (stereo not drawn) [CBK282498], the viability at 28.5 h, 10 µM stood at 110%.

Turning to `COc1cc(NC(=O)C2CCCN2)ccc1-n1cccc1` (stereo not drawn) [CBK282500], the viability at 28.5 h, 10 µM came to 85.4%.

With `Cc1n[nH]c(C)c1CNC(=O)C1CCN(Cc2ccc(F)cc2)CC1` [CBK282502], the viability at 28.5 h, 10 µM is 92%.

Turning to `Cc1nc2ccc(C(=O)NC3CCCOC3)cc2s1` (stereo not drawn) [CBK282509], the viability at 28.5 h, 10 µM amounted to 82.8%.

With `OC(CN1CCC(O)(c2ccc(F)cc2)CC1)c1ccc(F)cc1` (stereo not drawn) [CBK282510], the viability at 28.5 h, 10 µM turned out to be 79%.

Regarding `CC(=O)c1cn(CCC(=O)NC2CCCOC2)c2ccccc12` (stereo not drawn) [CBK282515], the viability at 28.5 h, 10 µM turned out to be 114%.

`CN1CCCC(NC(=O)C2CCN(Cc3ccc(F)cc3)CC2)C1` (stereo not drawn) [CBK282516]: the viability at 28.5 h, 10 µM worked out at 119%.

As for `CCCN1C[C@H](NC(=O)C2CC2)[C@@H](c2ccc(OC)cc2)C1` [CBK282518], the viability at 28.5 h, 10 µM was determined as 116%.

Take `O=C(NC1CCCOC1)C1CCN(Cc2ccccc2Cl)CC1` (stereo not drawn) [CBK282520]: the viability at 28.5 h, 10 µM turned out to be 107%.

Regarding `CCC(CC(=O)NC1CCCOC1)c1c[nH]c2ccccc12` (stereo not drawn) [CBK282521], the viability at 28.5 h, 10 µM worked out at 119%.

Take `CC(Cc1cccs1)NC(=O)c1cc2c([nH]c1=O)CCCCC2` (stereo not drawn) [CBK282523]: the viability at 28.5 h, 10 µM stood at 109%.

Turning to `C=CCC1(CC=C)CCN1C(=O)c1cc2c([nH]c1=O)CCCCC2` [CBK282524], the viability at 28.5 h, 10 µM came to 103%.

With `Cc1nc[nH]c1CN(Cc1cccc(F)c1)CC1CCCO1` (stereo not drawn) [CBK282525], the viability at 28.5 h, 10 µM was found to be 105%.

Take `C=Cn1ncc(CN2CCN(C3CCCCC3)C(=O)C2)c1C` [CBK282526]: the viability at 28.5 h, 10 µM came out at 107%.

On to `CC(=O)c1cc(C(=O)Nc2cnn(Cc3ccc(F)cc3)c2)cs1` [CBK282528], for which the viability at 28.5 h, 10 µM was 104%.

For the compound `CC(=O)c1cc(C(=O)N2CCC(O)(c3ccccc3C)CC2)cs1` [CBK282532], the viability at 28.5 h, 10 µM stood at 92.8%.

For the compound `Cc1c(C(=O)NCc2cc(C3CC3)[nH]n2)[nH]c2c(Cl)cccc12` [CBK282533], the viability at 28.5 h, 10 µM came to 70.2%.

For the compound `CCCN1CCC(CNC(=O)c2cc(C3CC3)nn2C)CC1` [CBK282536], the viability at 28.5 h, 10 µM is 101%.

Take `CCc1nc2ccc(NC(=O)c3csc(C(C)=O)c3)cc2[nH]1` [CBK282538]: the viability at 28.5 h, 10 µM stood at 114%.

With `Cc1c(C(=O)N2CCN(C3CCCCC3)C(=O)C2)[nH]c2ccccc12` [CBK282539], the viability at 28.5 h, 10 µM is 99.3%.

With `COc1ccc2cc(C(=O)NCCCc3ccccn3)n(C)c2c1` [CBK282545], the viability at 28.5 h, 10 µM is 103%.

Turning to `Cc1nn(CCC(=O)NC(c2ccccc2)c2cccnc2)c(C)c1C` (stereo not drawn) [CBK282547], the viability at 28.5 h, 10 µM is 86.3%.

As for `Cc1cc(C(=O)NCCn2ccc(C)n2)c2cccc(Cl)c2n1` [CBK282549], the viability at 28.5 h, 10 µM was determined as 79.6%.

`Cc1cc(C(=O)NCCCC2CCOC2)c2cccc(Cl)c2n1` (stereo not drawn) [CBK282550]: the viability at 28.5 h, 10 µM came to 91.7%.

`COCCNC(=O)Cn1c(-c2cccs2)cc2cccnc21` [CBK282554]: the viability at 28.5 h, 10 µM was 109%.

For `C[S+]([O-])CCNC(=O)Cn1c(-c2cccs2)cc2cccnc21` (stereo not drawn) [CBK282556], the viability at 28.5 h, 10 µM was found to be 89.3%.

In the case of `COCC(C)NC(=O)Cn1c(-c2cccs2)cc2cccnc21` (stereo not drawn) [CBK282557], the viability at 28.5 h, 10 µM worked out at 81.8%.

In the case of `CN1CCN(C(=O)Cn2c(-c3cccs3)cc3cccnc32)CC1` [CBK282558], the viability at 28.5 h, 10 µM is 97%.

In the case of `CC(=O)c1cc(C(=O)N(C)CCOc2ccccc2)cs1` [CBK282560], the viability at 28.5 h, 10 µM amounted to 99.6%.

With `C=Cn1cc(CN2CCN(C3CCCCC3)C(=O)C2)c(C)n1` [CBK282561], the viability at 28.5 h, 10 µM came to 109%.

Take `CN1CCCC(NC(=O)c2cc(-c3cccs3)no2)C1` (stereo not drawn) [CBK282564]: the viability at 28.5 h, 10 µM stood at 87.2%.

Regarding `O=C(NC1CCCOC1)c1cc(-c2cccs2)no1` (stereo not drawn) [CBK282565], the viability at 28.5 h, 10 µM came out at 82%.

In the case of `CC(C)c1cc(C(=O)NCC2CCCN(C(C)C)C2)n(C)n1` (stereo not drawn) [CBK282566], the viability at 28.5 h, 10 µM amounted to 95.8%.

Regarding `CC(C)c1cc(C(=O)N(C)Cc2cccc3ncccc23)n(C)n1` [CBK282567], the viability at 28.5 h, 10 µM was determined as 86.4%.
